Experimental data from patent US12648939B2, “Compounds and methods for treating spasticity” (Lexicon Pharmaceuticals, Inc., priority 2022, dated 2026).

Columns and labels:
[1] = test system: rat model of spasticity induced by complete spinal cord transection; assay: Muscle spasms evoked by tibial nerve stimulation in chronic SCI rats; type: in vivo; conditions: for duration of action (muscle spasms): recordings up to 6 hours
Experimental: (§1) The efficacy of Compound 1 was measured in a rat model of spasticity induced by complete spinal cord transection. To induce muscle spasticity, a model of complete spinal cord transection cord at the eighth thoracic (T8) vertebral level was used. Five weeks after the Spinal Cord Injury (SCI), the rats were orally (P.O.) treated with Compound 1 (3, 10, or 30 mg/kg), Baclofen (4.5 mg/kg). Tizanidine (3 mg/kg) or vehicles alone (0.9% NaCl, Compound 1 vehicle), and the degree of spasticity response was measured using the rate-dependent depression (RDD) of the Hoffmann's reflex (H-reflex) and spasms induction.
(§2) Materials and Methods. […] One hundred and fifty-one SCI rats were maintained up to the end of the 5th post-injury week. One hundred and forty rats were submitted to P.O. administration of the test compounds and EMG analysis.
(§3) The rat was firmly restrained to immobilize the head. In an upright position, the gavage needle was passed along the side of the mouth. Following the roof of the mouth, the needle was advanced into the esophagus and toward the stomach. After the needle is passed to the correct length, the compound was slowly injected. The rats were randomly assigned to one of the test groups:
(§4) Electroneuromyographical recordings were performed in the right hind limbs before and 1, 2, 3, 4, 5 and 6 hours after P.O. administration.
(§5) Electromyographical (EMG) signals were amplified (100×) and bandpass filtered (300 Hz to 5 kHz; A-M Systems Amplifier. Everett, Washington; model 1700) before sampling at 13.5 kHz (Digidata 1440A, Molecular Devices). The tibial nerve was stimulated by using square pulses with increasing stimulus intensities (0.2 mA increments starting from 0.2 mA, 0.2 Hz, 0.2 ms; A-M systems stimulator, Model 2100) to obtain recruitment curves.
Muscles spasms: In awake chronic SCI rats, muscle spasms were evoked with stimulation of the tibial nerve while performing electromyographic (EMG) recordings from the flexor digitorum brevis (FDB) muscle. Spastic spinal rats were handled nine days before the experiment and progressively habituated to be individually constrained in a plexiglass tube and to immobilization of their paralyzed hindlimbs with tape. • 1. Hmax and Mmax determination: the tibial nerve was stimulated for 0.2 ms at 0.2 Hz with increasing current intensities (1-6 mA in 0.2 mA increments) until Mmax was stabilized. • 2. A supramaximal single-pulse stimulation to elicit muscle spasms was fixed throughout the experiment (2 or 3 times the threshold intensity for M-wave) and evoked 5 times, with 60 s interstimulus intervals. EMG were rectified and averaged over 2000 ms interval post-stimulus to quantify spasms (Clamplit 8.0, Axon Instruments).
(§6) Data analysis: H-reflex RDDs and areas under the curves (AUC) were determined as a measurement of spasticity and analyzed at each time point and for each frequency with Mann-Whitney test or with Kruskal Wallis one-way analysis of variance (ANOVA) test, followed by Dunn's multiple comparisons test. P<0.05 was considered significant. Significant differences were marked with asterisks (*) according to their respective P-values: values were expressed as the mean value±standard error of the mean (SEM) in all graphs. All statistical analyses were performed using GraphPad Prism 7 (San Diego, California, USA).
Modulation of Muscle Spasms. When the tibial nerve was stimulated in acutely (1 week after injury) injured rats, little reflexes were evoked in the FDB muscle (FIG. 8A), regardless of the stimulation intensity. In contrast, stimulation of the tibial nerve in chronic (5 weeks after injury) SCI rats produced more (P<0.0001; Mann-Whitney test; FIG. 8C) long-lasting muscle contractions (FIG. 8B). This effect is a reliable correlate of the development of spasticity. In spastic rats, spasms were induced through the FDB muscle after electrical stimulation of the tibial nerve. […]

[2] = test system: rat model of spasticity induced by complete spinal cord transection; assay: Rate-dependent depression (RDD) of the H-reflex in SCI rats; type: in vivo; conditions: for mean relative amplitudes of the H-reflex (RDD) / mean relative amplitudes of the H-reflex (RDD), effect on spasticity: SCI rats 5 weeks after injury; for duration of action (H-reflex RDD): recordings up to 6 hours
Experimental: as §1, §2, §3, §4, §5
RDD of the H-reflex: To induce sedation, intraperitoneal injection of ketamine (100 mg/kg; Imalgen®) was used to suppress voluntary movements and increase muscle tone. Rats thorax and hindlimbs were secured on a heating pad with adhesive tape. The following series of measurements were repeated throughout the experiment: • 1. Hmax and Mmax determination: the tibial nerve was stimulated for 0.2 ms at 0.2 Hz with increasing current intensities (1-6 mA in 0.1 mA increments) until Mmax was stabilized. • 2. RDD measurement: the intensity necessary to obtain a maximal H-reflex was used for trains of 13 stimulations at 0.2, 1, 2 and 5 Hz with 2 min intervals between each train of stimulations. A whole series of measurements lasted about 15 minutes. • 3. Determination of the level of RDD: at the different frequencies, responses to the first three stimulations necessary for the depression to occur were discarded, and all the responses were expressed as percentages relative to the mean response at 0.2 Hz in the same series of measurements.
as §6
Modulation of the RDD of the H-reflex. The Hoffmann reflex was used to assess primary (type 1a) afferents-mediated motoneuronal excitability in rats suffering from spasticity. Electromyograms typically show two responses: an initial M wave (FIG. 6B) resulting from the direct activation of motor axons (FIG. 6A-1), and a delayed H wave (FIG. 6B) resulting from the monosynaptic activation of motoneurons by the afferents (FIG. 6A-2). […]

[3] = test system: myelin oligodendrocyte glycoprotein (MOG)-induced murine model of experimental autoimmune encephalomyelitis (EAE); assay: Electrophysiology (EMG, transcranial motor-evoked potentials) in EAE model; type: in vivo, C57BL/6J mice; conditions: for latency / latency until reaching the main event / peak-to-peak (P2P) amplitude: Day 10; for latency: vehicle 6.94±0.59 ms; for latency until reaching the main event: vehicle 10.05±2.59 ms; for peak-to-peak (P2P) amplitude: vehicle 7681.17±1505.12 μV; for rate of fibrillation (EMG): Day 21, vehicle printed 1.11±4.69 Hz
Experimental: (§7) The effect of Compound 1 on spasticity was evaluated in a myelin oligodendrocyte glycoprotein (MOG)-induced murine model of experimental autoimmune encephalomyelitis (EAE), a central nervous system (CNS) autoimmune demyelinating disease that mimics many of the clinical and pathologic features of multiple sclerosis. Gilgun-Sherki Y., et al., Neurosciences Research 47:201-207, 2003.
(§8) Study Design and Results. This study used sixty female young adult (10-11 weeks at study initiation) C57BL/6J mice sourced from Envigo RMS (Israel), Ltd. The animals were divided into five experimental groups:
(§9) Each group received a dose volume of 5 ml/kg, and the regimen was performed daily from day 0 to 22 of the study, QD. On study day 21, half of the animals in each group was treated and tested for electrophysiology and electromyography (EMG) two hours post dosing. On study day 22, the same was performed with the remaining half of the animals in each group.
(§10) FIG. 1 provides a representation of the study. Following baseline measurements, the MOG murine model begins with a sensitization period induced by the single subcutaneous (SC) injection of MOG emulsified in Complete Freund's adjuvant (CFA) on Study Day 0, followed by intraperitoneal (IP) supplemental immunostimulation with pertussis toxin (PT) carried out once at the day of EAE induction (study day 0) and once again 48 hours later (on study day 2). […] Mechanical allodynia was tested using the Von Frey test at Baseline and on Day 9 at various timepoints. For evaluation of spasticity, transcranial motor-evoked potentials (tcMEPs) were tested at Baseline and on Days 9 and 21-22 (half of the animals on each day). All animals were administered treatment once daily, starting on Day 0 until Day 22. Animals in Group 1 received oral (PO) treatment with the vehicle. Animals in Group 2 were treated with Fingolimod (FTY720; positive control) at a dose level of 3 mg/kg. PO. Animals in Groups 3 and 4 were treated with the test item Compound 1 at a dose level of 10 mg/kg or 3 mg/kg, PO, respectively. Animals in Group 5 were treated with Tizanidine at a dose level of 1 mg/kg, IP.
Electrophysiology: The animals were subjected to electrophysiology testing at Baseline and Days 10 and 21 of the study. The EMG, latency, latency to main event, duration, peak-to-peak (P2P) amplitude, and number of subpeaks were recorded.

[4] = test system: myelin oligodendrocyte glycoprotein (MOG)-induced murine model of experimental autoimmune encephalomyelitis (EAE); assay: EAE clinical score and AUC; type: in vivo, C57BL/6J mice
Experimental: as §7, §8
as §10, with “Animals in Group 1 received oral (PO) treatment with the vehicle. Animals in Group 2 were treated with Fingolimod (FTY720; positive control) at a dose level of 3 mg/kg. PO. Animals in Groups 3 and 4 were treated with the test item Compound 1 at a dose level of 10 mg/kg or 3 mg/kg, PO, respectively. Animals in Group 5 were treated with Tizanidine at a dose level of 1 mg/kg, IP.” left out

[5] = test system: myelin oligodendrocyte glycoprotein (MOG)-induced murine model of experimental autoimmune encephalomyelitis (EAE); assay: Mechanical allodynia evaluation (Von Frey testing) in EAE model; type: in vivo, C57BL/6J mice; conditions: Day 9
Experimental: as §7, §8, §10
Mechanical Allodynia Evaluation (Von Frey Testing): Animals were tested for mechanical allodynia using the Von Frey test at Baseline, and then on Day 9 at 0.5 hours ([…]), 1.5 hours, 3.5 hours (all groups) and 5.5 hours (Groups 1-4 only) post-dose.

[6] = test system: myelin oligodendrocyte glycoprotein (MOG)-induced murine model of experimental autoimmune encephalomyelitis (EAE); assay: Body weight in MOG-induced EAE model; type: in vivo, C57BL/6J mice; conditions: for BW compared to vehicle group: throughout the study
Experimental: as §7, §8, §9
as §10, with “Animals in Group 5 were treated with Tizanidine at a dose level of 1 mg/kg, IP.” left out

[7] = both dose levels (10 and 3 mg/kg PO QD)

## NCC(CC(=O)O)c1ccc(Cl)cc1 (stereo not drawn) [Baclofen, reference compound]
[1]; single P.O. 4.5 mg/kg
  maximum effect, time (muscle spasms): 2 h
  muscle spasms (AUC): reduced
  onset of action (muscle spasms): 1 h
[2]; single P.O. 4.5 mg/kg
  maximum effect, time (H-reflex RDD): 5 h
  onset of action (H-reflex RDD): 1 h
  mean relative amplitudes of the H-reflex (RDD): significantly reduced

## CC(C)C[C@](C)(N)COc1ccc(-c2ccnc(C(F)F)c2)nc1C(F)F [Compound 1, (S)-1-((2′,6-bis(difluoromethyl)-[2,4′-bipyridin]-5-yl)oxy)-2,4-dimethylpentan-2-amine]
[3]; 3 mg/kg PO QD
  latency: 5.31 ± 0.21 ms
  latency until reaching the main event: 5.32 ± 0.22 ms
  peak-to-peak (P2P) amplitude: 11321.67±1321.68 μV
  rate of fibrillation (EMG): 0.38±0.38 Hz
[3]; 10 mg/kg PO QD
  latency: 5.54 ± 0.22 ms
  peak-to-peak (P2P) amplitude: 11613.75±1154.41 μV
  rate of fibrillation (EMG): 1.22±0.57 Hz
[3]; [7]
  duration compared to vehicle treated animals: reduced
  number of sub potentials compared to vehicle treated animals: reduced
[4]; 10 mg/kg or 3 mg/kg PO QD
  clinical score compared to the vehicle: did not result in a significant reduction
[1]; single P.O. 3 mg/kg
  onset of action (muscle spasms): 1 h
  duration of action (muscle spasms): 5 h
[1]; single P.O. 10 mg/kg
  onset of action (muscle spasms): 1 h
  duration of action (muscle spasms): 3 h
[1]; single P.O. 30 mg/kg
  onset of action (muscle spasms): 1 h
  duration of action (muscle spasms): 5 h
[1]; single P.O., all tested dosages (3, 10, 30 mg/kg), n=10
  muscle spasms (AUC): significantly reduced
[5]; 3 mg/kg PO, all timepoints post dosing
  withdrawal force threshold compared to the vehicle-treated group: higher withdrawal force threshold compared to the vehicle-treated group
[5]; 10 mg/kg PO, 1.5 hours post dosing, vehicle 0.89±0.11 g
  withdrawal force threshold (Von Frey): 1.48 ± 0.10 g
[5]; 10 mg/kg PO, 3.5 hours post dosing, vehicle 0.78±0.06 g
  withdrawal force threshold (Von Frey): 1.36 ± 0.09 g
[5]; 10 mg/kg PO, 5.5 hours post dosing, vehicle 0.82±0.08 g
  withdrawal force threshold (Von Frey): 1.52 ± 0.13 g
[2]; single P.O. 3 mg/kg
  mean relative amplitudes of the H-reflex (RDD), effect on spasticity: did not appear to affect spasticity
[2]; single P.O. 10 mg/kg
  onset of action (H-reflex RDD): 1 h
  mean relative amplitudes of the H-reflex (RDD): significantly reduced
  duration of action (H-reflex RDD): at least 6 hour
[2]; single P.O. 30 mg/kg
  onset of action (H-reflex RDD): 1 h
  mean relative amplitudes of the H-reflex (RDD): significantly reduced
  duration of action (H-reflex RDD): at least 6 hours
[6]; 3 mg/kg PO QD
  BW compared to vehicle group: not significantly different from the vehicle group
[6]; 10 mg/kg PO QD
  BW compared to vehicle group: not significantly different from the vehicle group

## Clc1ccc2nsnc2c1NC1=NCCN1 [Tizanidine, reference compound]
[3]; 1 mg/kg IP QD
  latency until reaching the main event: 5.64 ± 0.19 ms
  peak-to-peak (P2P) amplitude: 13488.71±1234.10 μV
[4]; 1 mg/kg IP QD
  clinical score compared to the vehicle: did not result in a significant reduction
[1]; single P.O. 3 mg/kg
  maximum effect, time (muscle spasms): 3 h
  muscle spasms (AUC): reduced
  onset of action (muscle spasms): 2 h
[5]; 1 mg/kg IP, 3.5 hours post dosing, vehicle 0.78±0.06 g
  withdrawal force threshold (Von Frey): 1.32 ± 0.15 g
[5]; 1 mg/kg IP, all timepoints (0.5, 1.5, and 3.5 hours) post-dose
  withdrawal force threshold compared to vehicle: higher withdrawal force threshold
[2]; single P.O. 3 mg/kg
  maximum effect, time (H-reflex RDD): 2 h
  onset of action (H-reflex RDD): 2 h
  mean relative amplitudes of the H-reflex (RDD), effect on spasticity: significantly reduced
[6]; 1 mg/kg IP QD, Day 16, vehicle 82.06±2.35%
  mean BW presented as percentage from Baseline: 91.31±1.59%
